Here are results for 46 molecules from patent US7425640B2, “Substituted 5-carboxyamide pyrazoles and [1,2,4]triazoles as antiviral agents” (priority 2004, dated 2008).

Read-outs that look alike come from different tables or passages of the source.

The assay has as its target HCV RNA-dependent RNA polymerase NS5B (Δ21) (Hepatitis C virus genotype 1b, UniProt P26663). The assay is described as follows: Assay for HCV RNA-dependent RNA polymerase activity (SPA, [3H]-GTP incorporation). Conditions: 50 nM NS5B (Δ21), class symbols. The format is biochemical. As to the method:
Inhibitory activity of the present compounds against HCV RNA-dependent RNA polymerase was assayed according to the methods disclosed in United States Patent Application US2004/038993, content of which is incorporated herein by reference; and those described in Ferrari, E.; Wright-Minogue, J.; Fang, J. W. S.; Baroudy, B. M.; Lau, J. Y. N.; Hong, Z. J. Virol. 1999, 73, 1649.
Briefly, 50 μl reactions containing 20 mM HEPES (pH 7.3), 7.5 mM DTT, 20 units/ml RNasIN, 0.5 μg/ml biotinylated oligoG12, 5 μg/ml polyC, 5 μM GTP, 20 μCi/ml [^3H]-GTP, 10 mM MgCl2, 60 mM NaCl, 100 μg/ml BSA, and 50 nM NS5B (Δ21) were incubated at room temperature for three hours in 96-well plates with or without test compounds. Assay was terminated by the addition of 50 μl 10 mg/ml streptavidin-coated SPA beads supplemented with 100 mM EDTA, and the incorporation of labeled GTP determined by a TopCount Scintillation Counter. IC50 values were calculated from single experiments using 11 serial 2-fold dilutions (0.05-50 μM), and data were considered reliable only when the IC50 value of a positive internal control was within standard deviation range.

Where [1] appears, read: read-out: Δ21 Activity (IC50 μM).

Chain of HCV RNA-dependent RNA polymerase NS5B (Δ21) (P26663 2420-2989, stated change not applied): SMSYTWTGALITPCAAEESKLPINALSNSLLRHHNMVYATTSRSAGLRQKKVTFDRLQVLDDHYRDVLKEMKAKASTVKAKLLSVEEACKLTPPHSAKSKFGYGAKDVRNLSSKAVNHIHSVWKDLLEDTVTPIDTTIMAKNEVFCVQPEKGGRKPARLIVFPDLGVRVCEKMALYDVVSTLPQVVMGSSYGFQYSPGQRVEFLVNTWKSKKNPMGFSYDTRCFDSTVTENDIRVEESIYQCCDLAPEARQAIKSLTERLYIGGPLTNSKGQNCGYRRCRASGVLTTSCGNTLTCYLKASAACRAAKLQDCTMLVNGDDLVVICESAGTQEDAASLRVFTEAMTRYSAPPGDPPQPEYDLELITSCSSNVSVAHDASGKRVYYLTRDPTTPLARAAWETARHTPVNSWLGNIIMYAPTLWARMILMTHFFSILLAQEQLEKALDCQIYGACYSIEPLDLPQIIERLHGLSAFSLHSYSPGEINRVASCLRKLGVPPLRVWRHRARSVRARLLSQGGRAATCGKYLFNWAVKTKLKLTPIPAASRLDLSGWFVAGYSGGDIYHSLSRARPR

For `CN(C)S(=O)(=O)Nc1cc(C(=O)N[C@H]2CCCC[C@@H]2OCc2ccccc2)n(CC(=O)N[C@H]2CCCC[C@@H]2OCc2ccccc2)n1` [Compound 45], the IC50 (in general, the concentration needed to halve the response being measured) (Δ21 Activity (IC50 μM)) lay in the range of 0.05 to 0.1 µM. Still for that read-out and setting: the figure for `O=C(Cn1nc(C(=O)NCc2ccc(Cl)cc2)cc1C(=O)N[C@H]1CCCC[C@@H]1OCc1ccccc1)N[C@H]1CCCC[C@@H]1OCc1ccccc1` [Compound 46] is 0.05 to 0.1 µM; for `O=C(Cn1nc(NS(=O)(=O)c2ccc(C(F)(F)F)cc2)cc1C(=O)N[C@H]1CCCC[C@@H]1OCc1ccccc1)N[C@H]1CCCC[C@@H]1OCc1ccccc1` [Compound 47] it is 0.05 to 0.1 µM. In the case of `CCOC(=O)c1cc(C(=O)N[C@H]2CCCC[C@@H]2OCc2ccccc2)n(CC(=O)N[C@H]2CCCC[C@@H]2OCc2ccccc2)n1` [Compound 49], the IC50 under setting [1] is 0.1 to 1 µM.

`O=C(Cn1nc(C(=O)NCc2ccccc2)cc1C(=O)N[C@H]1CCCC[C@@H]1OCc1ccccc1)N[C@H]1CCCC[C@@H]1OCc1ccccc1` [Compound 50]: the IC50 under setting [1] lay in the range of 0.1 to 1 µM. On to `O=C(Cn1nc(C(=O)N2CCc3ccccc3C2)cc1C(=O)N[C@H]1CCCC[C@@H]1OCc1ccccc1)N[C@H]1CCCC[C@@H]1OCc1ccccc1` [Compound 51], for which the IC50 under setting [1] lay within 0.1 to 1 µM.

As for `CC(C)(NC(=O)c1cc(C(=O)N[C@H]2CCCC[C@@H]2OCc2ccccc2)n(CC(=O)N[C@H]2CCCC[C@@H]2OCc2ccccc2)n1)c1ccccc1` [Compound 52], the IC50 under setting [1] lay within 0.1 to 1 µM.

For `O=C(Cn1nc(C(=O)NOCc2ccccc2)cc1C(=O)N[C@H]1CCCC[C@@H]1OCc1ccccc1)N[C@H]1CCCC[C@@H]1OCc1ccccc1` [Compound 53], the IC50 under setting [1] lay within 0.1 to 1 µM. Consider `O=C(Cn1nc(C(=O)Nc2ccccc2)cc1C(=O)N[C@H]1CCCC[C@@H]1OCc1ccccc1)N[C@H]1CCCC[C@@H]1OCc1ccccc1` [Compound 54], for which the IC50 under setting [1] is 0.1 to 1 µM. Still for that read-out and setting: the figure for `O=C(Cn1nc(NS(=O)(=O)c2cccc3ccccc23)cc1C(=O)N[C@H]1CCCC[C@@H]1OCc1ccccc1)N[C@H]1CCCC[C@@H]1OCc1ccccc1` [Compound 55] is 0.1 to 1 µM; for `Cc1ccc(OCC2CC2)c(NC(=O)Cn2nc(C(=O)O)cc2C(=O)N[C@H]2CCCC[C@@H]2OCc2ccccc2)c1` [Compound 56] it is 0.1 to 1 µM.

For the molecule `O=C(O)c1cc(C(=O)N[C@H]2CCCC[C@@H]2OCc2ccccc2)n(CS(=O)(=O)N[C@H]2CCCC[C@@H]2OCc2ccccc2)n1` [Compound 57], the IC50 under setting [1] lay within 0.1 to 1 µM.

In the case of `O=C(Cn1nc(NS(=O)(=O)c2ccc(Br)c(Br)c2)cc1C(=O)N[C@H]1CCCC[C@@H]1OCc1ccccc1)N[C@H]1CCCC[C@@H]1OCc1ccccc1` [Compound 58], the IC50 under setting [1] is 0.1 to 1 µM. Still for that read-out and setting: the figure for `O=C(Cn1nc(C(=O)O)nc1C(=O)Nc1ccccc1OCC1CCCCC1)N[C@H]1CCCC[C@@H]1OCc1ccccc1` [Compound 59] is 0.1 to 1 µM. For the molecule `CS(=O)(=O)Nc1cc(C(=O)N[C@H]2CCCC[C@@H]2OCc2ccccc2)n(CC(=O)N[C@H]2CCCC[C@@H]2OCc2ccccc2)n1` [Compound 60], under setting [1], the IC50 was in the range of 0.1 to 1 µM.

For `O=C(Cn1nc(NS(=O)(=O)c2ccc(Cl)c(Cl)c2)cc1C(=O)N[C@H]1CCCC[C@@H]1OCc1ccccc1)N[C@H]1CCCC[C@@H]1OCc1ccccc1` [Compound 61], the IC50 under setting [1] is 0.1 to 1 µM.

For `O=C(Cn1nc(C(=O)O)nc1C(=O)Nc1ccccc1OCc1ccccc1)N[C@H]1CCCC[C@@H]1OCc1ccccc1` [Compound 62], under setting [1], the IC50 was 0.1 to 1 µM. On the same count and under the same terms, under `CC(C)C(=O)c1cc(C(=O)N[C@H]2CCCC[C@@H]2OCc2ccccc2)n(CC(=O)N[C@H]2CCCC[C@@H]2OCc2ccccc2)n1` [Compound 63] stands 0.1 to 1 µM; under `CN(C)c1cccc2c(S(=O)(=O)NCCNC(=O)c3cc(C(=O)N[C@H]4CCCC[C@@H]4OCc4ccccc4)n(CC(=O)N[C@H]4CCCC[C@@H]4OCc4ccccc4)n3)cccc12` [Compound 64], 0.1 to 1 µM; under `CC(C)(C)OC(=O)c1cc(C(=O)N[C@H]2CCCC[C@@H]2OCc2ccccc2)n(CC(=O)N[C@H]2CCCC[C@@H]2OCc2ccccc2)n1` [Compound 65], 0.1 to 1 µM.

As to `O=C(Cn1nc(C(=O)O)nc1C(=O)N[C@H]1CCCC[C@@H]1OCc1ccccc1)N[C@H]1CCCC[C@@H]1OCc1ccccc1` [Compound 66], under setting [1], the IC50 fell in the range of 0.1 to 1 µM.

`Cc1c(Cl)cccc1S(=O)(=O)Nc1cc(C(=O)N[C@H]2CCCC[C@@H]2OCc2ccccc2)n(CC(=O)N[C@H]2CCCC[C@@H]2OCc2ccccc2)n1` [Compound 67]: under setting [1], the IC50 fell in the range of 0.1 to 1 µM. `O=C(Cn1nc(C(=O)NOCc2cccc3ccccc23)cc1C(=O)N[C@H]1CCCC[C@@H]1OCc1ccccc1)N[C@H]1CCCC[C@@H]1OCc1ccccc1` [Compound 68]: the IC50 under setting [1] was 0.1 to 1 µM. On to `O=C(Cn1nc(O)cc1C(=O)N[C@H]1CCCC[C@@H]1OCc1ccccc1)N[C@H]1CCCC[C@@H]1OCc1ccccc1` [Compound 69], for which the IC50 under setting [1] was in the range of 0.1 to 1 µM. For `O=C(Cn1nc(C(=O)NCc2cccc(Cl)c2)cc1C(=O)N[C@H]1CCCC[C@@H]1OCc1ccccc1)N[C@H]1CCCC[C@@H]1OCc1ccccc1` [Compound 70], the IC50 under setting [1] fell in the range of 0.1 to 1 µM.

In the case of `O=C(Cn1nc(NS(=O)(=O)c2ccc(F)cc2Cl)cc1C(=O)N[C@H]1CCCC[C@@H]1OCc1ccccc1)N[C@H]1CCCC[C@@H]1OCc1ccccc1` [Compound 71], the IC50 under setting [1] lay in the range of 0.1 to 1 µM. With `O=C(Cn1nc(C(=O)NOCC2CC2)cc1C(=O)N[C@H]1CCCC[C@@H]1OCc1ccccc1)N[C@H]1CCCC[C@@H]1OCc1ccccc1` [Compound 72], the IC50 under setting [1] lay within 0.1 to 1 µM. Regarding `COc1ccccc1NC(=O)c1cc(C(=O)N[C@H]2CCCC[C@@H]2OCc2ccccc2)n(CC(=O)N[C@H]2CCCC[C@@H]2OCc2ccccc2)n1` [Compound 73], the IC50 under setting [1] lay in the range of 0.1 to 1 µM. In the case of `C[C@@H](NC(=O)c1cc(C(=O)NC2CCCCC2OCc2ccccc2)n(CC(=O)N[C@H]2CCCC[C@@H]2OCc2ccccc2)n1)c1cccc2ccccc12` (stereo partly shown) [Compound 74], the IC50 under setting [1] was in the range of 0.1 to 1 µM. Take `O=C(Cn1nc(NC(=O)C(F)(F)F)cc1C(=O)N[C@H]1CCCC[C@@H]1OCc1ccccc1)N[C@H]1CCCC[C@@H]1OCc1ccccc1` [Compound 75]: the IC50 under setting [1] fell in the range of 0.1 to 1 µM. Regarding `Cc1ccc(OCC2CC2)c(NC(=O)c2cc(C(=O)O)nn2CC(=O)N[C@H]2CCCC[C@@H]2OCc2ccccc2)c1` [Compound 76], under setting [1], the IC50 lay in the range of 0.1 to 1 µM. Consider `CC(C)CNC(=O)c1cc(C(=O)N[C@H]2CCCC[C@@H]2OCc2ccccc2)n(CC(=O)N[C@H]2CCCC[C@@H]2OCc2ccccc2)n1` [Compound 77], for which the IC50 under setting [1] is 0.1 to 1 µM. Same read-out and setting: the figure for `CC(C)S(=O)(=O)Nc1cc(C(=O)N[C@H]2CCCC[C@@H]2OCc2ccccc2)n(CC(=O)N[C@H]2CCCC[C@@H]2OCc2ccccc2)n1` [Compound 78] is 0.1 to 1 µM; for `O=C(Cn1nc(NS(=O)(=O)c2ccc(F)cc2F)cc1C(=O)N[C@H]1CCCC[C@@H]1OCc1ccccc1)N[C@H]1CCCC[C@@H]1OCc1ccccc1` [Compound 79] it is 0.1 to 1 µM; for `O=C(Cn1nc(NS(=O)(=O)c2cccc(Cl)c2)cc1C(=O)N[C@H]1CCCC[C@@H]1OCc1ccccc1)N[C@H]1CCCC[C@@H]1OCc1ccccc1` [Compound 80] it is 0.1 to 1 µM.

Consider `O=C(Cn1nc(C(=O)NCc2ccccc2Cl)cc1C(=O)N[C@H]1CCCC[C@@H]1OCc1ccccc1)N[C@H]1CCCC[C@@H]1OCc1ccccc1` [Compound 81], for which the IC50 under setting [1] fell in the range of 0.1 to 1 µM. Still for that read-out and setting: under `CC(=O)Nc1ccc(S(=O)(=O)Nc2cc(C(=O)N[C@H]3CCCC[C@@H]3OCc3ccccc3)n(CC(=O)N[C@H]3CCCC[C@@H]3OCc3ccccc3)n2)cc1` [Compound 82] stands 0.1 to 1 µM; under `O=C(Cn1nc(C(=O)NC2CCCCC2)cc1C(=O)N[C@H]1CCCC[C@@H]1OCc1ccccc1)N[C@H]1CCCC[C@@H]1OCc1ccccc1` [Compound 83], 0.1 to 1 µM. Regarding `O=C(Cn1nc(NS(=O)(=O)Cc2ccccc2)cc1C(=O)N[C@H]1CCCC[C@@H]1OCc1ccccc1)N[C@H]1CCCC[C@@H]1OCc1ccccc1` [Compound 84], under setting [1], the IC50 is 0.1 to 1 µM. Take `O=C(Cn1nc(NS(=O)(=O)c2ccc([N+](=O)[O-])cc2)cc1C(=O)N[C@H]1CCCC[C@@H]1OCc1ccccc1)N[C@H]1CCCC[C@@H]1OCc1ccccc1` [Compound 85]: the IC50 under setting [1] fell in the range of 0.1 to 1 µM. As for `O=C(Cn1nc(C(=O)N2CCCC3CC=CC=C32)cc1C(=O)N[C@H]1CCCC[C@@H]1OCc1ccccc1)N[C@H]1CCCC[C@@H]1OCc1ccccc1` (stereo partly shown) [Compound 86], the IC50 under setting [1] was in the range of 0.1 to 1 µM. For the molecule `CC(C)(C)c1ccc(S(=O)(=O)Nc2cc(C(=O)N[C@H]3CCCC[C@@H]3OCc3ccccc3)n(CC(=O)N[C@H]3CCCC[C@@H]3OCc3ccccc3)n2)cc1` [Compound 87], the IC50 under setting [1] lay within 0.1 to 1 µM. As to `O=C(Cn1nc(C(=O)c2ccccc2)cc1C(=O)N[C@H]1CCCC[C@@H]1OCc1ccccc1)N[C@H]1CCCC[C@@H]1OCc1ccccc1` [Compound 88], the IC50 under setting [1] is 0.1 to 1 µM. Regarding `CC1CCC(OCc2ccccc2)C(NC(=O)c2cc(C(=O)O)nn2CS(=O)(=O)N[C@H]2CCCC[C@@H]2OCc2ccccc2)C1` (stereo partly shown) [Compound 89], the IC50 under setting [1] lay in the range of 0.1 to 1 µM. For the molecule `Cc1c(S(=O)(=O)Nc2cc(C(=O)N[C@H]3CCCC[C@@H]3OCc3ccccc3)n(CC(=O)N[C@H]3CCCC[C@@H]3OCc3ccccc3)n2)sc2ccc(Cl)cc12` [Compound 90], the IC50 under setting [1] is 0.1 to 1 µM. As to `O=C(Cn1nc(NC(=O)c2ccccc2)cc1C(=O)N[C@H]1CCCC[C@@H]1OCc1ccccc1)N[C@H]1CCCC[C@@H]1OCc1ccccc1` [Compound 91], under setting [1], the IC50 lay within 0.1 to 1 µM.
